Source: article PMC7037548, “Microbial Transformation of Prenylquercetins by Mucor hiemalis” (Molecules, 2020)
Values after ≈ are worked out from the molar mass of the structure shown.

Test: Water solubility test
Format: physicochemical
Details: not given
Method: The solubility of prenylquercetins and their glucosides were determined based on the previously reported method with some modifications. Briefly, each compound (4 mg) was dissolved in 1 mL of distilled water at room temperature followed by sonication for 10 min and centrifugation at 3600 rpm for 5 min at room temperature. Then the concentrations of the compounds in the supernatant were measured based on their peak areas utilizing calibration curves determined by the HPLC of authentic samples.

With `CC(C)=CCc1cc(O[C@@H]2O[C@H](CO)[C@@H](O)[C@H](O)[C@H]2O)c(O)cc1-c1oc2c(CC=C(C)C)c(O[C@@H]3O[C@H](CO)[C@@H](O)[C@H](O)[C@H]3O)cc(O)c2c(=O)c1O` [Compound 8, 8,6′-Diprenylquercetin 7,4′-O-β-D-diglucopyranoside] the “Water solubility, comparison in words” value was “higher solubility than metabolite 9”.

Same assay, conditions: distilled water, room temperature, 4 mg in 1 mL, sonication 10 min, centrifugation, supernatant by HPLC

With `O=c1c(O)c(-c2ccc(O)c(O)c2)oc2cc(O)cc(O)c12` [Quercetin] the “Solubility (water solubility)” value was 36 µg/mL (≈ 119 µM).

Same assay, conditions: water, thermodynamic from solid

First: CC(C)=CCc1c(O)cc(O)c2c(=O)c(O)c(-c3ccc(O)c(O)c3)oc12 [Compound 1, 8-prenylquercetin]
Second: CC(C)=CCc1cc(O)c(O)cc1-c1oc2c(CC=C(C)C)c(O)cc(O)c2c(=O)c1O [Compound 3, 8,6′-diprenylquercetin]
The solubility at 10 min of the first is 1.5-fold lower: 13 µg/mL (≈ 35.1 µM) for the first, 20 µg/mL (≈ 45.6 µM) for the second.

Compared with `CC(C)=CCc1cc(O)c(O)cc1-c1oc2cc(O)cc(O)c2c(=O)c1O` [Compound 2, 6′-prenylquercetin], `CC(C)=CCc1cc(O)c(O)cc1-c1oc2cc(O[C@@H]3O[C@H](CO)[C@@H](O)[C@H](O)[C@H]3O)cc(O)c2c(=O)c1O` [Compound 6, 6′-Prenylquercetin 7-O-β-D-glucopyranoside] is 31-fold higher in solubility at 10 min: 63 µg/mL (≈ 170 µM) for the first, 1980 µg/mL (≈ 3710 µM) for the second.

`CC(C)=CCc1c(O[C@@H]2O[C@H](CO)[C@@H](O)[C@H](O)[C@H]2O)cc(O)c2c(=O)c(O)c(-c3ccc(O)c(O)c3)oc12` [Compound 4, 8-Prenylquercetin 7-O-β-D-glucopyranoside] and `CC(C)=CCc1c(O)cc(O)c2c(=O)c(O[C@@H]3O[C@H](CO)[C@@H](O)[C@H](O)[C@H]3O)c(-c3ccc(O)c(O)c3)oc12` [Compound 5, 8-Prenylquercetin 3-O-β-D-glucopyranoside] are within 1.5-fold of each other in solubility at 10 min: 501 µg/mL (≈ 941 µM) for the first, 385 µg/mL (≈ 723 µM) for the second.

First: CC(C)=CCc1cc(O[C@@H]2O[C@H](CO)[C@@H](O)[C@H](O)[C@H]2O)c(O)cc1-c1oc2cc(O)cc(O)c2c(=O)c1O [Compound 7, 6′-Prenylquercetin 4′-O-β-D-glucopyranoside]
Second: CC(C)=CCc1cc(O)c(O)cc1-c1oc2c(CC=C(C)C)c(O[C@@H]3O[C@H](CO)[C@@H](O)[C@H](O)[C@H]3O)cc(O)c2c(=O)c1O [Compound 9, 8,6′-Diprenylquercetin 7-O-β-D-glucopyranoside]
The solubility at 10 min of the first is 5.9-fold higher: 3640 µg/mL (≈ 6830 µM) for the first, 613 µg/mL (≈ 1020 µM) for the second.

For `CC(C)=CCc1cc(O[C@@H]2O[C@H](CO)[C@@H](O)[C@H](O)[C@H]2O)c(O)cc1-c1oc2c(CC=C(C)C)c(O[C@@H]3O[C@H](CO)[C@@H](O)[C@H](O)[C@H]3O)cc(O)c2c(=O)c1O` [Compound 8, 8,6′-Diprenylquercetin 7,4′-O-β-D-diglucopyranoside], the solubility at 10 min was > 4000 µg/mL.
